Test results as given in patent US20080221082A1, “Ligands of Integrin Receptors” (priority 2000, published 2008).

Key:
integrin αvβ3 = molecular target: T1, integrin αvβ3 (Homo sapiens, UniProt P05106+P06756); assay: Integrin αvβ3 assay (competition between vitronectin and the test substance for binding to solid phase-bound integrin αvβ3); conditions: integrin αvβ3 from human placenta; human vitronectin as competing ligand; result in words only
T1 construct: from tissue; host or cells: human placenta
Procedure: For the identification and assessment of integrin αvβ3 ligands, a test system was used which was based on competition between the natural integrin αvβ3 ligand vitronectin and the test substance for binding to solid phase-bound integrin αvβ3.
• Microtiter plates coated with 250 ng/ml of integrin αvβ3 in 0.05 M NaHCO3 pH 9.2; 0.1 ml/well; • saturation with 1% powdered milk/assay buffer; 0.3 ml/well; 0.5 h/RT • 3× washing with 0.05% Tween 20/assay buffer • test substance in 0.1% powdered milk/assay buffer, 50 μl/well+0 μg/ml or 2 μg/ml of human vitronectin (Boehringer Ingelheim T007) in 0.1% powdered milk/assay buffer, 50 μl/well; 1 h/RT • 3× washing with 0.05% Tween 20/assay buffer • 1 μg/ml of anti human vitronectin antibody coupled to peroxidase (Kordia SAVN-APHRP) in 0.1% powdered milk/assay buffer; 0.1 ml/well; 1 h/RT • 3× washing with 0.05% Tween 20/assay buffer • 0.1 ml/well of peroxidase substrate • stop reaction with 0.1 ml/well of 2 M H2SO4 • measurement of the absorption at 450 nm
Integrin αvβ3: Human placenta is solubilized with Nonidet and integrin αvβ3 affinity-purified on a GRGDSPK matrix (elution with EDTA). Impurities due to integrin αIIbβ3 and human serum albumin, and the detergent and EDTA are removed by anion-exchange chromatography.
Assay buffer: 50 mM Tris pH 7.5; 100 mM NaCl; 1 mM CaCl2; 1 mM MgCl2; 10 μM MnCl2 […]

SMILES	IC50 values (concentration of the ligand at which 50% of the ligand is displaced) (integrin αvβ3)	melting point
O=C(O)CC1CCC(=O)N(CC(=O)NCc2ccc(-c3nc4ccccc4[nH]3)cc2)c2ccccc21 (centres unmarked) [Example VII, [1-(2-{[4-(1H-Benzimidazol-2-yl)benzyl]amino}-2-oxoethyl)-2-oxo-2,3,4,5-tetrahydro-1H-1-benzazepin-5-yl]acetic acid]	best result	–
CC(C)(C)OC(=O)CC1CCC(=O)N(CC(=O)NCc2ccc(Nc3nc4ccccc4[nH]3)cc2)c2ccccc21 (centres unmarked) [Example 99, tert-Butyl [1-(2-{[4-(1H-benzimidazole-2-ylamino)benzyl]amino}-2-oxoethyl)-2-oxo-2,3,4,5-tetrahydro-1H-1-benzazepine-5-yl]acetate]	–	231 °C (dec.)
